The results in this text go back to ChEMBL document CHEMBL1128902, “Selectively deoxygenated sulfated tetrasaccharides as probes for the investigation of smooth muscle cell antiproliferative activity” (1996).

This assay is filed under the species Rattus norvegicus. Briefly: Antiproliferative activity against rat smooth muscle cell (SMC) expressed as relative activity compared to heparin; ri is relative inhibitory activity. It is filed as functional.

For `C[C@@H]1O[C@H](O[C@H]2[C@H](O)[C@H](O)[C@H](O[C@H]3[C@H](O)[C@H](O)[C@@H](O[C@H]4O[C@H](CO)[C@@H](O)[C@@H](O)[C@@H]4O)O[C@H]3CO)O[C@H]2CO)[C@@H](O)[C@@H](O)[C@@H]1O`, the Relative inhibitory activity was found to be 0.6. In the case of `OC[C@H]1O[C@H](O[C@H]2O[C@H](CO)[C@@H](O[C@H]3O[C@H](CO)[C@@H](O[C@H]4O[C@H](CO)[C@@H](O)[C@H](O)[C@H]4O)[C@H](O)[C@H]3O)[C@H](O)[C@H]2O)[C@H](O)[C@@H](O)[C@@H]1O` it was 0.9.
